Reference: patent US10201558B2, “Compositions of selenoorganic compounds and methods of use thereof” (Alltech, Inc., priority 2014, dated 2019)
Entries after “also recorded” stand apart in the source; their conditions may differ.

Assays:
IMR-32 cells = experiment: Cell viability assay (CellTiter96 AQueous One, OD490); assay type: cell-based, human; conditions: 150 ppb, 72 hours
Experimental: Cell viability in cultured IMR-32 cells was determined using Promega's CellTiter96® AQueous One Solution Cell Proliferation Assay kits, according to the manufacturer's protocol and instructions. In brief, IMR-32 cells were seeded on 96-well clear plates (VWR) at a density of 2×10^4 cells/well, and treated with control or compounds of the present invention for 24 hours, 28 hours, and/or 72 hours.
The cultured cells were then incubated with AQueous One solution (100 ul/per well) at 37° C. for 1 hour. The absorbance at OD490 nm in each sample was determined by a Bio-Tek microplate reader. Cell viability in cultured cells were determined by the subtraction of OD490 nm in cultured cells with the OD490 nm in plain culture media without seeding of cells (control). Eight samples per each treatment were examined for the above analysis.
Cell viability assays were performed on cells after treatment with various compounds (150 ppb selenium compounds and equal dilution of their sulfur analog) for 24 hours, and 72 hours.

phosphorylated-p38 = experiment: Western blot of phosphorylated-p38 in APP/PS1 mouse brains; assay type: in vivo; conditions: APP/PS1 mice, Compound C diet vs control diet
Experimental: (§1) Male APPΔNLh/ΔNLh×PS1P246 L/246 L knock-in model mice of Alzheimer's disease (abbreviated APP/PS1) were genotyped using standard primers for human APP (Amyloid Precursor Protein) and human PS1 (PSEN1). These APP/PS1 mice starting at the age of 6 months, were fed either a control diet containing normal levels of selenium (0.3 ppm from plant and inorganic selenium salt sources) or an experimental diet containing Compound C (the control diet to which was added 1 ppm Se from Compound C) for 6 months. […]
(§2) Frozen hemispheres of control- and Compound C-treated APP/PS1 mice were weighed and homogenized in PBS buffer, and then subsequently extracted with RIPA buffer (Sigma) containing complete proteinase and phosphatase inhibitors (Fisher Scientific). Protein levels in the samples were determined by micro-BCA protein analysis according to the manufacturer's protocol. […] Positive signals on the membrane blots were detected using Amersham's enhanced chemiluminescence Western Blotting Prime Detection reagents (GE healthcare Lifescience, Pittsburgh, Pa.). Images of these luminescence signals on the membrane blots were captured using the LI-COR Odyssey Fc Image system (Lincoln, Nebr.). Protein band densities in Western blots were determined using NIH Image J software, and then normalized by Actb levels in each samples to obtain the protein levels.

[1] = tested on: phosphorylated Foxo4 (threonine 28); experiment: Western blot of phosphorylated Foxo4 in APP/PS1 mouse brains; assay type: in vivo; conditions: APP/PS1 mouse brain, Compound C diet vs control diet
Experimental: Male APPΔNLh/ΔNLh×PS1P246 L/246 L knock-in model mice of Alzheimer's disease (abbreviated APP/PS1) were genotyped using standard primers for human APP (Amyloid Precursor Protein) and human PS1 (PSEN1).
(§3) At 12 months of age, the mice were euthanized and the brains quickly removed, the cerebellum isolated and the hemispheres snap-frozen in liquid nitrogen and then stored at −80° C. for further immunohistochemistry (IHC), protein and RNA analysis. All procedures conducted on these animal studies were pre-approved by the University of Kentucky IACUC committee.
as §2, with “Protein band densities in Western blots were determined using NIH Image J software, and then normalized by Actb levels in each samples to obtain the protein levels.” left out

[2] = tested on: Notch signaling molecules; experiment: Microarray expression profiles of 65 Notch signaling molecules in APP/PS1 mice; assay type: in vivo, mouse; conditions: microarray heatmap, 5 control and 6 Compound C treated APP/PS1 mice
Experimental: To further investigate potential toxic effects of compound on the Notch signaling, microarray analysis was performed. Expression of Notch signaling molecules in the brains of Compound C-treated APP/PS1 mice was analyzed. […] Brain tissues were collected and subjected to microarray analysis. The transcription profiles of 65 Notch receptor signaling (based GO search) related genes were pulled out from the original microarray datasets, and then subjected to unsupervised hierarchical clustering analysis based on arrays (animals) using GeneSpring 13.0 software (Agilent Technologies, Inc.), to generate the heatmap of these gene expression (see FIG. 19). In the heatmap, gene expression levels (normalized by Actb) were shown in color intensity that reflect the expression changes compared to mean value of each gene, where blue, red or yellow colors represent decreased, increased or no change in the level of expression intensity, respectively. The dendogram on the top reflects the extent of similarity of expression profiles between animals.

Neprilysin = experiment: Western blot of Neprilysin in APP/PS1 mouse brains; assay type: in vivo; conditions: APP/PS1 mice, Compound C diet vs control diet
Experimental: as §1, §2

insoluble Aβ1-42 = experiment: ELISA of insoluble (FA-soluble) Aβ1-42 in the brains of APP/PS1 mice; assay type: in vivo, mouse; conditions: diet with 1 ppm Se from Compound C, 6 to 12 months of age, vs control mice
Experimental: Male APPΔNLh/ΔNLh×PS1P246 L/246 L knock-in model mice of Alzheimer's disease (abbreviated APP/PS1) were genotyped using standard primers for human APP (Amyloid Precursor Protein) and human PS1 (PSEN1). These APP/PS1 mice starting at the age of 6 months, were fed either a control diet containing normal levels of selenium (0.3 ppm from plant and inorganic selenium salt sources) or an experimental diet containing Compound C (the control diet to which was added 1 ppm Se from Compound C) for 6 months.
as §3
Frozen hemispheres of control- and Compound C-treated APP/PS1 mice were weighed and homogenized in PBS buffer. Insoluble Aβ fractions (formic acid (FA)-soluble fractions) were extracted from the homogenates using standard serial extraction protocols as described previously (Lovell et al, Free Radic Biol Med 2009; 46:1527-33) Insoluble Aβ1-42 levels (in the FA soluble fraction) were determined using standard sandwich ELISAs (Invitrogen), according to the manufacturer's procedure. […]

Q: `C[Se]C[C@H]1O[C@@H](n2cnc3c(N)ncnc32)C(O)C1O` (stereo in doubt) [Compound C, 5′-deoxy-5′-methylselenoadenosine] was tested. Which “cell viability (OD490)” value (IMR-32 cells) did it give?
A: small, but significant increase

Q: And the “phosphorylated-p38 protein levels in the brains” value (phosphorylated-p38)?
A: reduced; also recorded: decreased

Q: And the “phosphorylated Foxo4 at threonine 28 (pFoxo4) protein” value [1]?
A: inhibition; also recorded: less abundant; also recorded: significantly decreased

Q: What about the “expression levels of Notch 1-4, RBPJ, Hey1, Hes1, Hey2 and other Notch signaling molecules” value [2] of the same molecule?
A: did not have obvious change

Q: And the “Neprilysin protein levels in the brains” value (Neprilysin)?
A: increased; also recorded: elevated

Q: What about the “reduction of FA-soluble Aβ1-42 levels in the brains” value (insoluble Aβ1-42) of the same molecule?
A: about 30%
